# Results as given in patent US20080145439A1, “NA[…] FORMULATIONS” (NEUROSYSTEC CORPORATION, priority 2006, published 2008).
# Experiments:
# Assay type in all cases: physicochemical
# [1] = Apparent pKA of gacyclidine in aqueous solution
# Source text: (§1) However, in polymeric containers or in the presence of excess precipitated drug, the apparent pKA is perturbed to lower values due to interaction of the basic form of the drug with polymeric surfaces or its own insoluble precipitate. In the conjugate acid form, gacyclidine is extremely water soluble. Solutions of greater than 1 molar (M) concentration can be prepared from the hydrochloride salt. However, solutions of the acid form of the drug are thermally unstable and subject to acid-catalyzed decomposition to give stoichiometric piperidine (1 mole per mole of drug lost) and multiple other organic products.
# [2] = Water solubility of gacyclidine forms
# Source text: as §1
# [3] = Binding (loss) of gacyclidine to silicone; conditions: room temperature, pH 6, 100 μM gacyclidine solution; depends on time and temperature of exposure
# Source text: Delivery of gacyclidine in such a manner presents numerous challenges, however. Various characteristics of gacyclidine are discussed in more detail below. […] Specifically, catheters, drug reservoirs, pumps, anti-bacterial filters and other components of drug delivery systems are typically fabricated from polymers approved for human implantation.
# [4] = Thermal decomposition / stability of gacyclidine in solution; conditions: for decomposition rate: 54° C.; for Time for 10% Loss: Ringer's Lactate
smiles,measurement,setting,value
CC1CCCCC1(c1cccs1)N1CCCCC1 (centres unmarked) [Gacyclidine],temperature dependence of apparent pKA,[1],−0.016 ΔpKA/° C.
same,apparent pKA in glass vials higher than in polypropylene,"[1]; 37° C., 1 mM gacyclidine",about 0.7 pH units
same,apparent pKA,"[1]; room temperature, glass containers",7.4
same,apparent pKA (from residual gacyclidine in solution),"[1]; room temperature, 0.1 M hydrochloride salt diluted into buffered aqueous solution to 1 mM, glass or polypropylene vials",6.7
same,pH above which precipitation is observed,[2]; 0.1 M hydrochloride salt diluted into buffered aqueous solution to 1 mM,> 7 pH
same,gacyclidine retained by silicone,[3],up to 60%
"CC1CCCCC1(c1cccs1)N1CCCCC1 (centres unmarked) [basic form of gacyclidine, Gacyclidine]",solubility in water,[2]; above pH 9,< 0.002 mM
same,decomposition rate,[4]; 1 mM NaOH,0.0013 day⁻¹
same,stability relative to the conjugate acid form,[4]; from decomposition rates at 54° C.,200-400 times
"C[C@H]1CCCC[C@@]1(c1cccs1)N1CCCCC1.Cl [Gacyclidine Hydrochloride Salt, Gacyclidine]",solubility in water (concentration of clear solution),[2],greater than 1 M
same,solubility in water (concentration of clear solution),[2]; listed as hydrochloride salt of gacyclidine,> 1000 mM
same,decomposition rate,[4]; 10 mM HCl,0.52 day⁻¹
same,Time for 10% Loss,"[4]; 37° C., pH 5.5",3.7 ± 0.1 days
same,Time for 10% Loss,"[4]; 37° C., pH 6.0",3.82 ± 0.03 days
same,Time for 10% Loss,"[4]; 37° C., pH 7.4",6.1 ± 0.4 days
same,Time for 10% Loss,"[4]; 37° C., pH 7.4, listed as gacyclidine in the hydrochloride salt form",6.1 days
same,time required for 10% loss,"[4]; 37° C., slightly acidic conditions",3.8 days
